Legend:
rat aortic ring [1] = assay: Rat aortic ring angiogenesis assay (Examples 1 and 2); assay type: cell-based
Protocol: Rat aorta were removed and cleaned of adhering fatty and connective tissues before being cut into rings of approximately 3 mm width. Fibrinogen was applied to the bottoms of wells of multi-well culture plates and allowed to gel by thrombin action. An aortic ring was then layered on the top of each gel and a further layer of fibrin placed on this. The fibrinogen was prepared in MCDB131 medium (Sigma, United States) supplemented with antibiotics. The double layer of fibrin was then overlaid with MCDB131 medium containing the test extracts. Control wells contained HBSS. Fumagillin (20 μg/mL) was assayed in triplicate as a negative control.
The gels were incubated at 37° C. in an atmosphere of 3% CO2/97% air. The rings were examined using an inverted microscope and the growth of microvessels from their perimeters is observed. Digital pictures were taken of these every 2 days and the extent of microvessel growth relative to the size of the ring was determined using National Institute of Health (NIH) Image software (National Institutes of Health (NIH), Rockville Pike, Bethesda, Md., United States, and the rate of growth of microvessels was then determined for each well. Each test extract was assayed in triplicate and the mean growth rate was calculated.
Additional analysis of several of the MLA008E2 fractions was performed using the rat aortic ring assay (in vitro angiogenesis) as described in Example 1.8 and a rat dorsal flap assay (wound healing assay).

[2] = system: bovine aorta endothelial cells; assay: Endothelial cell migration assay; assay type: cell-based; settings: compared to the background level of migration (cells and media); 22±1 hour
Protocol: Bovine aorta where obtained from a local abattoir and clamped at either end. Arterioles were tied off with string. The aorta was washed free of contaminating blood with 2% sucrose solution under sterile conditions. Trypsin was added in PBS buffer and incubated for 30 minutes. The endothelial cell suspension was mixed 1:1 with cell culture media (DMEM containing 20% foetal bovine serum, 2% glutamine and antibiotics). The cells were collected by centrifugation at 960×g for 10 minutes then suspended in media prior to culturing stock cell ampoules. After five cell passages the cells were frozen in 10% DMSO and stored in liquid nitrogen. […] The cells were then harvested for use.
BD Bioscience angiogenesis cell migration assay 24 well plates (BD Bioscience, Franklin Lakes, N.J., United States) were used as per the manufacturers instructions. The migration plate was kept at −18° C. until required. Briefly, bovine aorta endothelial cells were prepared in DMEM and HEPES pH 7.2 at 2×10^5 cells/mL. A 250 μL volume of the cell suspension (5×10^4 cells) were added to the top chamber. Immediately, 750 μL was added to each of the bottom wells using the sample port to the bottom wells. Samples were prepared by adding the glycoprotein extract to 1 mL of DMEM containing HEPES. The plate was incubated for 22±1 hour at 37° C., 5% CO2 atmosphere. […]

rat aortic ring [3] = assay: Rat aortic ring angiogenesis assay (Example 4.3); assay type: cell-based, Lewis rat; settings: for % of Control: microvessel growth; for activity in promoting angiogenesis: summary of second study
Protocol: Four separate studies were carried out to determine the angiogenic effect of crystallin preparations. Each sample was assayed in triplicate. A positive control (VEGF) and a vehicle control containing PBS was also run in triplicate. […] Preliminary statistical significance was assessed with an independent Student t-test at α<0.05. Graphical representation of averages +/− standard errors were determined.
The first study investigated the angiogenic potential of bovine fractions prepared by gel filtration analysis as described in Example 3.2. As described in that Example, the alpha fraction contained αA and αB crystallin, the β H fraction contained all β crystallins, the β L1 fractions contained a sub-fraction of beta crystallins and a high content of βB2 crystallin and beta B3 crystallin and the beta L2 fraction contained only βB2 crystallin and βA3 crystallin.
The second study investigated the angiogenic potential of purified crystallin proteins. Briefly, βB3 crystallin was prepared by heating (97-99° C. for 3 minutes, supernatant collected by centrifugation) and was essentially homogenous. Alpha A crystallin and αB crystallin samples were prepared by ion exchange chromatography as described above and were also essentially homogenous. The Wound Heal 1-3 preparations were also tested in this study.
The third study investigated the angiogenic potential of ovine crystallin proteins compared to their bovine equivalents. Both bovine and ovine crystallin proteins were purified essentially to homogeneity by RP. HPLC using a C4 column, as described below in Example 5. Homogeneity was confirmed by SDS-PAGE. The effect of elastase I treatment of βB2 crystallin was also investigated by comparing the angiogenic potential of intact βB2 crystallin (i.e. undigested) with elastase I digested βB2 crystallin. Elastase I treatment releases the N-terminal and C-terminal extensions of the crystallin protein leaving a globular protein that is monomeric.
In the final study, ovine βB2 crystallin was tested alone or in combination with indoleamine 2,3-dioxygenase (IDO) and ovine alpha B crystallin was tested alone or in combination with tryptophan dioxygenase (TDO)
Briefly, in each study, a single Lewis rat was euthanised and its aorta transferred to a 15 mL Falcon tube containing 10 mL of MCBD-131 medium and stored on ice. After transferring the aorta to a 92×17 mm petri dish containing 10 mL of ice cold MCDB-131, the outer fatty tissue was removed under an Olympus SZ-60 Dissecting microscope. This was undertaken with fibre optic lamp illumination. The aorta was then cut into sequential rings approximately 2 mm in size. Connective tissue was removed with micro scissors and forceps from the outside of the individual rings. Clean rings were stored in a separate petri dish in sterile MCDB-131 medium. Rings were pre-incubated overnight at 37° C. in an atmosphere of 97% air/3% CO2.
To prepare gel sandwiches, 75 mg of fibrinogen was added to 25 mL MCDB-131 medium and shaken gently on a rocker roller for 5 minutes. 3 ml of MCDB-131/fibrinogen solution was added to a 15 mL Falcon tube, followed by 10 μL of thrombin and quickly mixed. A 0.4 mL volume of this fibrinogen-thrombin solution was added to each well on a 24 well plate, 6 wells at a time. Aortic rings were then placed on the setting gel, pushed gently into the gel and left for 45 minutes. These steps were then repeated so each ring was covered with 0.4 mL of gel. Gels were left to set at room temperature. […] The plate was then placed in incubator (37° C., 97% air/3% CO2).
Culture plate were examined daily for signs of infection (fungal growth or yellowing of media) in the wells using an inverted microscope. The growth of microvessels from their perimeters was also observed. Digital photographs of each well were taken seven days after plating using a Pixera PVC-100C digital camera mounted on an OLYMPUS CK-12 microscope and stored on a Macintosh Computer. […]

elastase I = biological target: T1, elastase I (Sus scrofa, UniProt P00772); assay: Chaperone activity: protection of elastase I from heat denaturation; assay type: biochemical; settings: boiling water bath for 30 seconds
T1 construct: purchased Worthington Biochemical Corporation 2280
T1 sequence (P00772 27-266): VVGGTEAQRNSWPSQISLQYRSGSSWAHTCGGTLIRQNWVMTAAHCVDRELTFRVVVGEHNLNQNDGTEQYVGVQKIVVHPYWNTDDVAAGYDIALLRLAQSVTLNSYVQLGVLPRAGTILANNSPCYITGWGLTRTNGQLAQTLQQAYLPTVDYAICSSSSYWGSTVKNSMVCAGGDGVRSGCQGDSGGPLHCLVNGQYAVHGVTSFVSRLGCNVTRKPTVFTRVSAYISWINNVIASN
Protocol: Bovine crystallin fractions were tested for ability to protect the proteases elastase I, trypsin and chymotrypsin from heat denaturation. Briefly, the proteases were heated in a boiling water bath for 30 seconds in the presence or absence of the crystallin fractions.

CO[C@@H]1[C@H](OC(=O)/C=C/C=C/C=C/C=C/C(=O)O)CC[C@]2(CO2)[C@H]1[C@@]1(C)O[C@@H]1CC=C(C)C [Fumagillin]
Rate of microvessel growth (rat aortic ring [1]; 20 μg/ml): 9.462 ± 1.67 | Mean growth rate (rat aortic ring [1]; batch 1, 20 μg/ml): 9.5 ± 1.7 | Mean growth rate (rat aortic ring [1]; batch 2, 40 μg/ml): 5.4 ± 1.6 | Stimulation/inhibition (rat aortic ring [1]; inhibition vs Control (HBSS), 20 μg/ml): 24.07% inhibition | Percentage stimulation or inhibition (rat aortic ring [1]; inhibition, batch 1, 20 μg/ml): 24.1% inhibition | Percentage stimulation or inhibition (rat aortic ring [1]; inhibition, batch 2, 40 μg/ml): 57.7% inhibition

N[C@@H](Cc1c[nH]c2ccccc12)C(=O)O [Tryptophan, tryptophan]
endothelial cell migration (in words) [2]: able to promote migration of the cells

VEGF [reference compound]
Mean growth rate (rat aortic ring [1]; batch 2, 40 μg/ml): 13.9 ± 0.2 | Percentage stimulation or inhibition (rat aortic ring [1]; stimulation, batch 2, 40 μg/ml): 11.1% stimulation | inhibition of microvessel growth (rat aortic ring [3]; first study, 30 μg/ml, not statistically significant): 15.08% | % of Control (rat aortic ring [3]; forth study, 50 μg/mL): 113.7% | angiogenic effect on microvessel growth (in words) (rat aortic ring [3]; second study, VEGF 50 μg/mL, test samples 200 μg/mL): slight stimulation | % of Control (rat aortic ring [3]; second study, 50 μg/mL): 107.08% | activity in promoting angiogenesis (rat aortic ring [3]; 50 ng/mL): 107% | % of Control (rat aortic ring [3]; third study, 50 μg/mL): 113.7%

Bovine αA crystallin: bovine alpha A crystallin prepared by ion exchange chromatography, essentially homogenous
chaperone activity: protection of elastase I from heat denaturation (in words) (elastase I): able to protect elastase I from heat inactivation | increase in microvessel growth (stimulatory) (rat aortic ring [3]; second study, 200 μg/mL): 8.26% | % of Control (rat aortic ring [3]; second study, 200 μg/mL): 108.26% | angiogenic activity (in words) (rat aortic ring [3]; summary of second and third study): angiogenic | activity in promoting angiogenesis (rat aortic ring [3]): 108%

Indoleamine 2,3-dioxygenase IDO: tryptophan hydrolyzing enzyme
angiogenic activity (in words) (rat aortic ring [3]; forth study, 100 μg/mL): stimulatory | % of Control (rat aortic ring [3]; forth study, 100 μg/mL): 116.4%

From patent publication US8404644B2, “Agents with angiogenic and wound healing activity” (Meat & Livestock Australia Limited, priority 2007, dated 2013)
